Assay type in all cases: cell-based
The test system of one test is fungi. Description: antifungal activity stated in words.
The test system of the next test is C. albicans. Put plainly: antifungal screening test of analogs, C. albicans (CA). To be noted: for IC (25-75%): read-out: Partial inhibition. The procedure: (§1) The analog compounds were tested for their activity against C. albicans, C. neoformans, A. fumigatus and T. rubrum. Partial inhibition of the fungus of between 25 to 75% was measured along with the total inhibition (MIC) by these anolog compounds. A description of the partial inhibition measurement can be found in R. L. Stiller, et al The Journal of Infectious Diseases, 147, No. 6 (1983). The structure of these analog compounds is as follows. [drawing 15] wherein R is the group identified in table 2.

The subject of another test is C. neoformans. Description: antifungal screening test of analogs, C. neoformans (CN). To be noted: for IC (25-75%): read-out: Partial inhibition. The procedure: as §1
The next test has as its system A. fumigatus. Put plainly: antifungal screening test of analogs, A. fumigatus (AF). To be noted: for IC (25-75%): read-out: Partial inhibition. The procedure:
as §1

The subject of the next test is T. rubrum. Put plainly: antifungal screening test of analogs, T. rubrum (TR). To be noted: for IC (25-75%): read-out: Partial inhibition. How it is done: as §1

Values after ≈ are worked out from the molar mass of the structure shown. Where two headings read alike, the source gives them in different places.

`C[N+](C)(C)CCOP(=O)([O-])OCCCCCCCCCCCCCCCCCCCCCCOP(=O)([O-])OCC[N+](C)(C)C` [1,22-docosandiol bisphosphocholine ester]: the antifungal activity entry in the test on fungi was “one of the most active antifungal compounds”.
The same measure, in the same setting: to `CCCCCCCCCCCCCCCC(=O)O[C@H](COC1O[C@H](CO)[C@@H](O)[C@H](O)[C@H]1O)COP(=O)([O-])OCC[N+](C)(C)C` (some centres unmarked) [2-palmitoyl-1-O-glucopyranosyllysolecithin] belongs “relatively active antifungal agent similar in activity to L-a-Lysophosphatidyl inositol”.
Consider `CCCCCCCCCC(=O)OC[C@@H](O)COP(=O)([O-])OCC[N+](C)(C)C` [L-a-Lysophosphatidylcholine Decanoyl (C:10)], for which the MIC was greater than 500 µg/mL with C. albicans (Candida albicans), 500 µg/mL (≈ 1220 µM) in the test on C. neoformans (Cryptococcus neoformans), greater than 500 µg/mL in the test with A. fumigatus (Aspergillus fumigatus) and greater than 500 µg/mL with T. rubrum (Trichophyton rubrum). Moreover, the IC (25-75%) with C. albicans (Candida albicans) is 250 µg/mL; in the test on C. neoformans (Cryptococcus neoformans), 250 µg/mL; in the test with A. fumigatus (Aspergillus fumigatus), greater than 500 µg/mL; in the test with T. rubrum (Trichophyton rubrum) it was greater than 500 µg/mL.
Turning to `CCCCCCCCCCCCCCCCC(=O)OC[C@@H](O)COP(=O)([O-])OCC[N+](C)(C)C` [L-a-Lysophosphatidylcholine Heptadecanoyl (C17:0)], the IC (25-75%) in the test with C. albicans (Candida albicans, CA, partial inhibition of between 25 to 75%) was determined as 16 µg/mL; in the test on A. fumigatus (Aspergillus fumigatus, AF, partial inhibition of between 25 to 75%), 31 µg/mL; with T. rubrum (Trichophyton rubrum, TR, partial inhibition of between 25 to 75%), 31 µg/mL. The minimal inhibitory concentration (MIC) was 63 µg/mL (≈ 124 µM) in the test with C. albicans (Candida albicans, CA, total inhibition, read-out: MIC); 16 µg/mL (≈ 31.4 µM) with C. neoformans (Cryptococcus neoformans, CN, total inhibition, read-out: MIC); greater than 1000 µg/mL with A. fumigatus (Aspergillus fumigatus, AF, total inhibition, read-out: MIC); 63 µg/mL (≈ 124 µM) in the test on T. rubrum (Trichophyton rubrum, TR, total inhibition, read-out: MIC).
Consider `CCCCCCCCCCCC(=O)OC[C@@H](O)COP(=O)([O-])OCC[N+](C)(C)C` [L-a-Lysophosphatidylcholine Lauroyl (C12:0)], for which the MIC against C. albicans (Candida albicans) was 500 µg/mL (≈ 1140 µM); against C. neoformans (Cryptococcus neoformans), 125 µg/mL (≈ 284 µM); against A. fumigatus (Aspergillus fumigatus) it was 125 µg/mL (≈ 284 µM); in the test with T. rubrum (Trichophyton rubrum), 250 µg/mL (≈ 569 µM). Besides, the results for the IC (25-75%) with C. neoformans (Cryptococcus neoformans) and with T. rubrum (Trichophyton rubrum) were 31 µg/mL and 63 µg/mL, respectively.
`CCCCCCCCCCCCCC(=O)OC[C@@H](O)COP(=O)([O-])OCC[N+](C)(C)C` [L-a-Lysophosphatidylcholine Myristoyl (C14:0)]: the MIC in the test on C. albicans (Candida albicans) worked out at 31 µg/mL (≈ 66.3 µM); in the test on C. neoformans (Cryptococcus neoformans), 31 µg/mL (≈ 66.3 µM); in the test with A. fumigatus (Aspergillus fumigatus), 125 µg/mL (≈ 267 µM); with T. rubrum (Trichophyton rubrum) it was 31 µg/mL (≈ 66.3 µM). In addition, the IC (25-75%) in the test with A. fumigatus (Aspergillus fumigatus) was 31 µg/mL.
On to `CCCCCCCC/C=C\CCCCCCCC(=O)OC[C@@H](O)COP(=O)([O-])OCC[N+](C)(C)C` [L-a-Lysophosphatidylcholine Oleoyl (C18:1,[Cis]-9)], for which the MIC is 31 µg/mL (≈ 59.4 µM) with C. albicans (Candida albicans), 31 µg/mL (≈ 59.4 µM) against C. neoformans (Cryptococcus neoformans), 63 µg/mL (≈ 121 µM) against A. fumigatus (Aspergillus fumigatus) and 31 µg/mL (≈ 59.4 µM) against T. rubrum (Trichophyton rubrum). Besides, the IC (25-75%) with A. fumigatus (Aspergillus fumigatus) came out at 31 µg/mL.
`CCCCCCCCCCCCCCCC(=O)OC[C@@H](O)COP(=O)([O-])OCC[N+](C)(C)C` [L-a-Lysophosphatidylcholine Palmitoyl (C16:0)]: the MIC in the test with C. albicans (Candida albicans) amounted to 31 µg/mL (≈ 62.5 µM); against C. neoformans (Cryptococcus neoformans), 31 µg/mL (≈ 62.5 µM); against A. fumigatus (Aspergillus fumigatus), 63 µg/mL (≈ 127 µM); in the test with T. rubrum (Trichophyton rubrum) it was 500 µg/mL (≈ 1010 µM). Further, the IC (25-75%) in the test on A. fumigatus (Aspergillus fumigatus) was 31 µg/mL; with T. rubrum (Trichophyton rubrum), 63 µg/mL.
With `CCCCCCCCCCCCCCCCCC(=O)OC[C@@H](O)COP(=O)([O-])OCC[N+](C)(C)C` [L-a-Lysophosphatidylcholine Stearoyl (C18:0)], the MIC in the test with C. albicans (Candida albicans), in the test on C. neoformans (Cryptococcus neoformans), with A. fumigatus (Aspergillus fumigatus) and against T. rubrum (Trichophyton rubrum) was greater than 250 µg/mL each time. Moreover, the IC (25-75%) in the test on C. albicans (Candida albicans) was greater than 250 µg/mL; in the test with C. neoformans (Cryptococcus neoformans), 31 µg/mL; with A. fumigatus (Aspergillus fumigatus), greater than 250 µg/mL; with T. rubrum (Trichophyton rubrum), greater than 250 µg/mL.
For `CCCCCCCC/C=C\CCCCCCCC(=O)OC[C@@H](O)COP(=O)(O)OCCN` [L-a-Lysophosphatidylethanol Amine, Oleoyl (C18:1,[cis]-9)], the MIC with C. albicans (Candida albicans), in the test on C. neoformans (Cryptococcus neoformans), in the test on A. fumigatus (Aspergillus fumigatus) and in the test with T. rubrum (Trichophyton rubrum) was greater than 100 µg/mL in each case. In addition, the IC (25-75%) in the test with C. albicans (Candida albicans) was greater than 100 µg/mL; with C. neoformans (Cryptococcus neoformans) it was 100 µg/mL; with A. fumigatus (Aspergillus fumigatus), greater than 100 µg/mL; with T. rubrum (Trichophyton rubrum) it was greater than 100 µg/mL.
For L-a-Lysophosphatidyl inositol, the Partial inhibition in the test with C. albicans (CA, partial inhibition of between 25 to 75%) was greater than 100 µg/mL; with C. neoformans (CN, partial inhibition of between 25 to 75%) it was 100 µg/mL; in the test on T. rubrum (TR, partial inhibition of between 25 to 75%), greater than 100 µg/mL. The MIC in the test on C. albicans (CA, total inhibition) was greater than 100 µg/mL; in the test on C. neoformans (CN, total inhibition), greater than 100 µg/mL; against A. fumigatus (AF, total inhibition) it was 100 µg/mL; against T. rubrum (TR, total inhibition), greater than 100 µg/mL.

These data come from patent publication US5681829A, “Class of phosphocholine derivatives having antifungal activity” (Shaman Pharmaceuticals, Inc., priority 1995, dated 1997).
